Laboratory results as given in the supplement of paper PMC10627819.

Legend:
S. aureus DSM 20231 [1] = test: Bliss interaction score (quartile over a dose matrix) (fitness difference); higher = more antagonism (negative = synergy)
In short: (§1)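 Combination data were used to infer fitness under each single drug. Fitness is the OD595 at entry into stationary phase divided by the robust mean of the plate's no-drug wells, with a cap of 1. The Bliss score is the observed minus the expected product fitness, summarised by quartiles over technical, biological and donor/recipient replicates.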

B. subtilis 168 [2] = test: as above
In short: as §1

S. pneumoniae D39V [3] = test: as above
In short: as §1

S. aureus Newman = test: as above
In short: as §1

S. aureus DSM 20231 [4] = test: fitness (endpoint OD595 vs no drug) (fraction); higher = more growth
In short: (§2)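 Volumes were 30 µl per well, or 55 µl for S. pneumoniae, in 384-well plates inoculated at OD595 0.01. Media were TSB, LB Lennox or CY at 37 °C, and OD595 was read every 30 min for 14 h with first-reading background subtraction. Fitness is the ratio of optical density at stationary-phase entry to the robust mean of no-drug controls. That ratio is capped at 1.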

B. subtilis 168 [5] = test: as above
In short: as §2

S. pneumoniae D39V [6] = test: as above
In short: as §2
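For Bliss interaction score (quartile over a dose matrix) in this document: first quartile when negative (synergy) and third quartile when positive (antagonism).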

CCC[C@@H]1C[C@@H](C(=O)N[C@@H]([C@H]2O[C@H](SC)[C@H](O)[C@@H](O)[C@H]2O)[C@@H](C)O)N(C)C1 [Lincomycin] + COc1ccc(C[C@H](N)C(=O)N[C@H]2[C@@H](O)[C@H](n3cnc4c(N(C)C)ncnc43)O[C@@H]2CO)cc1 [Puromycin]
Details | Bliss interaction score
B. subtilis 168 [2] | -0.0436
S. aureus DSM 20231 [1] | -0.0648
S. aureus Newman | 0.0533
S. pneumoniae D39V [3] | -0.157

fitness
Details | first compound 0.1 µg/mL | first compound 0.2 µg/mL | first compound 0.215 µg/mL | first compound 0.4 µg/mL | first compound 0.43 µg/mL | first compound 0.86 µg/mL
B. subtilis 168 [5], partner 0.39 µg/mL | 0.867 | 0.869 | – | 0.854 | – | –
B. subtilis 168 [5], partner 0.78 µg/mL | 0.889 | 0.883 | – | 0.91 | – | –
B. subtilis 168 [5], partner 1.56 µg/mL | 0.873 | 0.866 | – | 0.843 | – | –
S. aureus DSM 20231 [4], partner 0.39 µg/mL | 0.877 | 0.806 | – | 0.304 | – | –
S. aureus DSM 20231 [4], partner 0.78 µg/mL | 0.935 | 0.776 | – | 0.303 | – | –
S. aureus DSM 20231 [4], partner 1.56 µg/mL | 0.906 | 0.759 | – | 0.253 | – | –
S. pneumoniae D39V [6], partner 1 µg/mL | – | – | 0.838 | – | 0.756 | 0.436
S. pneumoniae D39V [6], partner 2 µg/mL | – | – | 0.792 | – | 0.709 | 0.3
S. pneumoniae D39V [6], partner 4 µg/mL | – | – | 0.743 | – | 0.536 | 0.251

fitness, one replicate
Details | first compound 0.1 µg/mL | first compound 0.2 µg/mL | first compound 0.4 µg/mL | first compound 0.8 µg/mL
S. aureus DSM 20231 [4], partner 3.12 µg/mL | 0.822 | 0.489 | 0.207 | –
S. aureus DSM 20231 [4], partner 6.24 µg/mL | 0.282 | 0.217 | 0.093 | –
S. pneumoniae D39V [6], partner 1 µg/mL | – | 0.64 | 0.382 | 0.0776
S. pneumoniae D39V [6], partner 2 µg/mL | – | 0.621 | 0.325 | 0.127
S. pneumoniae D39V [6], partner 4 µg/mL | – | 0.275 | 0.083 | 0.0925

COc1c(N2C[C@@H]3CCCN[C@@H]3C2)c(F)cc2c(=O)c(C(=O)O)cn(C3CC3)c12 [Moxifloxacin] + COc1cc(Cc2cnc(N)nc2N)cc(OC)c1OC [Trimethoprim]
Details | Bliss interaction score
B. subtilis 168 [2] | 0.0283
S. aureus DSM 20231 [1] | -0.0854
S. aureus Newman | -0.193
S. pneumoniae D39V [3] | 0.0963

one replicate
Details | fitness
B. subtilis 168 [5], first compound 0.0312 µg/mL, partner 0.1 µg/mL | 0.0166
B. subtilis 168 [5], first compound 0.0312 µg/mL, partner 0.2 µg/mL | 0.0497
B. subtilis 168 [5], first compound 0.0312 µg/mL, partner 0.4 µg/mL | 0.0325
B. subtilis 168 [5], first compound 0.0625 µg/mL, partner 0.1 µg/mL | 0.0397
B. subtilis 168 [5], first compound 0.0625 µg/mL, partner 0.2 µg/mL | 0.0393
B. subtilis 168 [5], first compound 0.0625 µg/mL, partner 0.4 µg/mL | 0.011
B. subtilis 168 [5], first compound 0.125 µg/mL, partner 0.1 µg/mL | 0.0162
B. subtilis 168 [5], first compound 0.125 µg/mL, partner 0.2 µg/mL | 0.0361
B. subtilis 168 [5], first compound 0.125 µg/mL, partner 0.4 µg/mL | 0.0203
B. subtilis 168 [5], first compound 2 µg/mL, partner 1 µg/mL | 0.0073
B. subtilis 168 [5], first compound 2 µg/mL, partner 2 µg/mL | 0.0287
B. subtilis 168 [5], first compound 4 µg/mL, partner 1 µg/mL | 0.0329
B. subtilis 168 [5], first compound 4 µg/mL, partner 2 µg/mL | 0.0297
B. subtilis 168 [5], first compound 8 µg/mL, partner 1 µg/mL | 0.0126
B. subtilis 168 [5], first compound 8 µg/mL, partner 2 µg/mL | 0.0291
S. aureus DSM 20231 [4], first compound 0.0075 µg/mL, partner 0.125 µg/mL | 0.719
S. aureus DSM 20231 [4], first compound 0.015 µg/mL, partner 0.125 µg/mL | 0.627
S. aureus DSM 20231 [4], first compound 0.06 µg/mL, partner 0.125 µg/mL | 0.653
S. aureus DSM 20231 [4], first compound 0.06 µg/mL, partner 0.25 µg/mL | 0.44
S. aureus DSM 20231 [4], first compound 0.06 µg/mL, partner 0.5 µg/mL | 0.191
S. aureus DSM 20231 [4], first compound 0.12 µg/mL, partner 0.125 µg/mL | 0.343
S. aureus DSM 20231 [4], first compound 0.12 µg/mL, partner 0.25 µg/mL | 0.139
S. aureus DSM 20231 [4], first compound 0.12 µg/mL, partner 0.5 µg/mL | 0.0509

fitness
Details | partner 0.125 µg/mL | partner 0.25 µg/mL | partner 0.5 µg/mL | partner 1 µg/mL
B. subtilis 168 [5], first compound 0.0312 µg/mL | 0.0627 | 0.103 | 0.0656 | –
B. subtilis 168 [5], first compound 0.0625 µg/mL | 0.0366 | 0.0436 | 0.0539 | –
B. subtilis 168 [5], first compound 0.125 µg/mL | 0.0399 | 0.0294 | 0.0335 | –
B. subtilis 168 [5], first compound 2 µg/mL | – | – | 0.0293 | –
B. subtilis 168 [5], first compound 4 µg/mL | – | – | 0.0245 | –
B. subtilis 168 [5], first compound 8 µg/mL | – | – | 0.0127 | –
S. aureus DSM 20231 [4], first compound 0.0075 µg/mL | – | 0.559 | 0.0549 | 0.0253
S. aureus DSM 20231 [4], first compound 0.015 µg/mL | – | 0.525 | 0.0366 | 0.0226
S. aureus DSM 20231 [4], first compound 0.03 µg/mL | 0.552 | 0.376 | 0.041 | 0.0152

CCC[C@@H]1C[C@@H](C(=O)N[C@@H]([C@H]2O[C@H](SC)[C@H](O)[C@@H](O)[C@H]2O)[C@@H](C)O)N(C)C1 [Lincomycin] + CN1C2=CC=CC=C2N=C3C1=CC=CC3=O [Pyocyanin]
Details | Bliss interaction score
B. subtilis 168 [2] | 0.0751
S. aureus DSM 20231 [1] | -0.1
S. aureus Newman | -0.229
S. pneumoniae D39V [3] | 0.113

Details | fitness
B. subtilis 168 [5], first compound 0.1 µg/mL, partner 1.25 µg/mL | 0.899
B. subtilis 168 [5], first compound 0.1 µg/mL, partner 2.5 µg/mL | 0.823
B. subtilis 168 [5], first compound 0.1 µg/mL, partner 5 µg/mL | 0.694
B. subtilis 168 [5], first compound 0.2 µg/mL, partner 1.25 µg/mL | 0.862
B. subtilis 168 [5], first compound 0.2 µg/mL, partner 2.5 µg/mL | 0.8
B. subtilis 168 [5], first compound 0.2 µg/mL, partner 5 µg/mL | 0.668
B. subtilis 168 [5], first compound 0.4 µg/mL, partner 1.25 µg/mL | 0.827
B. subtilis 168 [5], first compound 0.4 µg/mL, partner 2.5 µg/mL | 0.792
B. subtilis 168 [5], first compound 0.4 µg/mL, partner 5 µg/mL | 0.66
S. aureus DSM 20231 [4], first compound 0.1 µg/mL, partner 1.25 µg/mL | 0.794
S. aureus DSM 20231 [4], first compound 0.1 µg/mL, partner 2.5 µg/mL | 0.883
S. aureus DSM 20231 [4], first compound 0.1 µg/mL, partner 5 µg/mL | 0.555
S. aureus DSM 20231 [4], first compound 0.2 µg/mL, partner 1.25 µg/mL | 0.661
S. aureus DSM 20231 [4], first compound 0.2 µg/mL, partner 2.5 µg/mL | 0.613
S. aureus DSM 20231 [4], first compound 0.2 µg/mL, partner 5 µg/mL | 0.329
S. aureus DSM 20231 [4], first compound 0.4 µg/mL, partner 2.5 µg/mL | 0.195
S. aureus DSM 20231 [4], first compound 0.4 µg/mL, partner 5 µg/mL | 0.0887
S. pneumoniae D39V [6], first compound 0.215 µg/mL, partner 0.325 µg/mL | 0.877
S. pneumoniae D39V [6], first compound 0.215 µg/mL, partner 0.65 µg/mL | 0.855
S. pneumoniae D39V [6], first compound 0.215 µg/mL, partner 1.3 µg/mL | 0.741
S. pneumoniae D39V [6], first compound 0.43 µg/mL, partner 0.325 µg/mL | 0.575
S. pneumoniae D39V [6], first compound 0.43 µg/mL, partner 0.65 µg/mL | 0.794
S. pneumoniae D39V [6], first compound 0.43 µg/mL, partner 1.3 µg/mL | 0.665
S. pneumoniae D39V [6], first compound 0.86 µg/mL, partner 0.325 µg/mL | 0.535
S. pneumoniae D39V [6], first compound 0.86 µg/mL, partner 0.65 µg/mL | 0.489
S. pneumoniae D39V [6], first compound 0.86 µg/mL, partner 1.3 µg/mL | 0.329

fitness, S. pneumoniae D39V [6], one replicate
Details | first compound 0.2 µg/mL | first compound 0.4 µg/mL | first compound 0.8 µg/mL
partner 0.325 µg/mL | 0.818 | 0.7 | 0.661
partner 0.65 µg/mL | 0.855 | 0.747 | 0.69

O=C(O[C@@H]1Cc2c(O)cc(O)cc2O[C@@H]1c1cc(O)c(O)c(O)c1)c1cc(O)c(O)c(O)c1 [EGCG] + COc1cc(Cc2cnc(N)nc2N)cc(OC)c1OC [Trimethoprim]
Details | Bliss interaction score
B. subtilis 168 [2] | -0.0682
S. aureus DSM 20231 [1] | 0.0729
S. aureus Newman | 0.115
S. pneumoniae D39V [3] | 0.12

fitness
Details | partner 0.125 µg/mL | partner 0.25 µg/mL | partner 0.5 µg/mL | partner 1 µg/mL
B. subtilis 168 [5], first compound 6.25 µg/mL | 0.611 | – | 0.508 | –
B. subtilis 168 [5], first compound 12.5 µg/mL | 0.363 | 0.426 | 0.41 | –
B. subtilis 168 [5], first compound 25 µg/mL | 0.232 | – | 0.244 | –
S. aureus DSM 20231 [4], first compound 12.5 µg/mL | 0.621 | 0.544 | 0.338 | 0.0444
S. aureus DSM 20231 [4], first compound 25 µg/mL | 0.675 | 0.541 | 0.3 | 0.0338
S. aureus DSM 20231 [4], first compound 50 µg/mL | 0.71 | 0.588 | 0.292 | 0.0285

fitness, B. subtilis 168 [5], one replicate
Details | partner 0.1 µg/mL | partner 0.2 µg/mL | partner 0.4 µg/mL | partner 1 µg/mL | partner 2 µg/mL
first compound 6.25 µg/mL | 0.856 | 0.624 | 0.464 | 0.346 | 0.485
first compound 12.5 µg/mL | 0.438 | 0.252 | 0.235 | 0.127 | 0.13
first compound 25 µg/mL | 0.199 | 0.102 | 0.0997 | 0.0869 | 0.0586
